The results in this text go back to patent publication US20090047310A1, “Use of a griffonia extract, in particular griffonia simplicifolia, in a cosmetic or dermatological composition for mitigating pigmentation of skin and skin appendages” (priority 2005, published 2009).

For this experiment, the system named is Normal human melanocytes. As to the kind of experiment: Melanogenesis: quantity of melaninic pigments in cultured normal human melanocytes. The class given is cell-based. Particulars: ten days culture. As for the experimental part: Normal human melanocytes are cultured for ten days in the absence and in the presence of non-cytotoxic quantities of the dry extract. The quantity of melaninic pigments is evaluated by extraction using 0.5 N soda and optical density measurement.
The procedure is as before for the dry extract.
The procedure is as before for the dry extract using 5-HTP extracted from the seeds of Griffonia simplicifolia.

Turning to `N[C@@H](Cc1c[nH]c2ccc(O)cc12)C(=O)O` [5-HTP, 5-hydroxytryptophan], the “quantity of melanin produced by the melanocytes, % of the control” value reads like this: (0.0016 mg/ml, p less than 0.05) 93%; (0.008 mg/ml, p less than 0.01) 89%; (0.04 mg/ml, p less than 0.01) 80%.
